Patent US20130252959A1, “NITRIC OXIDE DONORS IN THERAPY OF NITRIC OXIDE DEFICIENCY-INDUCED DISTURBANCES OF CEREBRAL MICROCIRCULATION” (West-Falische Wilhelms-Universitat Munster, priority 2010, published 2013)
“Also recorded” adds a separate entry of the source.

Key:
CVS = conditions: cited from earlier work
CVS and ischemia = conditions: intrathecal, local or intraventricular application; humans or laboratory animal; cited from earlier work
[1] = test system: patients with SAH after aneurysmal rupture; test: CVS detected by TCD (trans-cranial doppler); type: in vivo, human
Excerpt: TCD (trans-cranial doppler) is a diagnostic procedure using ultrasound waves to measure blood flow through the major blood vessels of the brain. In particular, the purpose of this test is to detect any narrowing or blockage in arteries located at the base of the brain that may decrease or stop the flow of blood to the brain and increase blood flow velocities according to narrowed vessel diameter. The test is most useful at detecting decreased blood flow through narrow areas inside blood vessels. TCDs are especially useful for monitoring blood flow in the brain of stroke patients who are affected by brain swelling and vasospasm (which are cerebral blood vessel spasms).
The treatment with Molsidomine was applied if vasospasm was detected by TCD (mean flow […] resp. Lindegaard-Index >3) or DSA (narrowing of vessel diameter >50%).

[2] = test system: patients with SAH after aneurysmal rupture; test: Spasm (CVS) related brain infarcts on CCT in SAH patients, Molsidomine in addition to standard therapy vs standard Nimodipine therapy; type: in vivo, human
Procedure: CCT at the beginning and after treatment were analyzed independently by two experienced neuroradiologists and were scanned for development of delayed brain infarction. At least three months after discharge a modified NIH-SS and a modified Rankin Scale (mRS) for clinical follow up was assessed. 83 patients admitted to the Intensive Care Unit of the University Hospital of Munster, Germany, after spontaneous aneurysmal SAH were registered in an observational study. […] These patients were excluded from further evaluation. […] Out of 76 individuals 27 patients received Molsidomine i.v. in an individually up-titrated dosage with a target quantity of 3.5-10 mg/h dependent on systemic circulation reactions. […] Within 24 h after admission to the ICU patients were treated with coil embolization and/or clipping. […] Appearance of CVS. Male and female patients with an age of 18 years and written informed consent for the additional application of Molsidomine. Spontaneous SAH after aneurysmal rupture and a clinical stage of Hunt and Hess grade Ito V. Exclusion criteria for patients were: No detected CVS. […] CCT and DSA images were independently reported by two experienced neuroradiologists for infarction and vasospasm. CVS related infarcts were diagnosed if hypodense lesions could be detected 72 h or later after therapeutic intervention or operation in comparison to the 24 h control CCT scan and being accompanied by clinical deterioration due to CVS or positive Doppler ultrasound or CVS in DSA.

[3] = test system: patients with SAH after aneurysmal rupture; test: Side effects and monitoring of blood pressure (MAP), ICP and blood under Molsidomine i.v.
Procedure: In both groups blood pressure, intracranial pressure (ICP) and saturation measurement of blood oxygen were observed continuously. TCD was performed daily or on demand with investigation of the internal carotid artery (ACI), medial cerebral artery (MCA), anterior cerebral artery (ACA) and basilar artery (BA). For monitoring the clinical condition the GCS score (Glasgow Coma Score) was determined per hour
The drug used contains Molsidomine, as supplied by Sanofi-Aventis, Germany, in ampullae with 2 mg/molsidomine (Corvaton®). The dosage of Molsidomine was adapted to the systemic blood pressure.
The dosage was reduced if the MAP dropped below 65 mmHg despite infusion therapy (HES 6-10%) or a mild Arterenol® therapy (max dosage Arterenol® 0.1-0.2 μg/h, preferably at a dose of 0.1-0.3 mg/h or a dose of 0.1-0.2 μg/kg/min.). With increased need for Arterenol® the dosage of Molsidomine was reduced accordingly. Patients with cardiac low-output failure induced by preexistent cardiac failure, stop of perfusion during acute SAH itself or other reasons like sepsis received Molsidomine up-titrated in highest possible amount based on cardiac treatment or the treatment was interrupted for maximal 48 hours if Arterenol®-dosage escalated.
The treatment with Molsidimine was continued (either i.v. or subsequent orally 4×8 mg ret.) until mean flows in TCD were normalized. The duration of Molsodomine application was at least 8 days according to inclusion criteria: Appearance or presence of detectable CVS.

[4] = after oral administration; cited from earlier work
[5] = test system: patients with SAH after aneurysmal rupture; test: Clinical outcome by modified NIH-SS and modified Rankin Scale at least three months after discharge; type: in vivo, human
Excerpt: The National Institutes of Health stroke scale (NIH-SS) is a graded neurological examination that assesses speech, language cognition, inattention, visual field abnormalities, motor and sensory impairments, and ataxia. The scale was developed for use in acute-stroke therapy trials and has since been widely used as a standard part of the assessment in clinical trials. This scale, along with many others, has been evaluated in its clinical usefulness in the assessment of the stroke patient. The NIH-SS permits a high-resolution evaluation of a patient's neurological status. To obtain the finding on the NIH-SS, various neurological aspects are investigated and assigned point scores. The total point score is a measure of the severity of the symptoms of stroke, the point score increasing with the severity of the symptoms. This rating scale is also suitable for monitoring the course of the symptoms after stroke and for quantifying the success of any treatment used. In general, it is possible to establish a correlation between the size of the infarct and the severity of the stroke as quantified by the stroke scale.
Rating scales such as the NIH-SS or the modified Rankin scale are generally used for the quantitative evaluation of the severity of a cerebral disorder, whether acute or under treatment.
CCT at the beginning and after treatment were analyzed independently by two experienced neuroradiologists and were scanned for development of delayed brain infarction. At least three months after discharge a modified NIH-SS and a modified Rankin Scale (mRS) for clinical follow up was assessed.
83 patients admitted to the Intensive Care Unit of the University Hospital of Munster, Germany, after spontaneous aneurysmal SAH were registered in an observational study. Seven patients died in the first 124 hours after admission, without detected CVS probably related to malignant brain edema and severity of initial SAH. These patients were excluded from further evaluation.
Out of 76 individuals 27 patients received Molsidomine i.v. in an individually up-titrated dosage with a target quantity of 3.5-10 mg/h dependent on systemic circulation reactions. The remaining 49 patients received standard therapy.
After a minimum of three months the modified NIH and modified Rankin status were determined in order to control clinical outcome of patients (NIH-SS and mRS).

[6] = test system: patients after brain hemorrhage, in particular SAH; conditions: under Nimodipine therapy; cited from earlier work
SAH group = conditions: administered 48 hours after SAH was induced; cited from earlier work
[7] = test system: rat cerebral arterioles and venules; conditions: He-Ne laser; cited from earlier work
[8] = test system: spontaneously hypertensive rats (SHRs); conditions: cited from earlier work
[9] = in vivo; cited from earlier work
[10] = infusion 3 min after MCA occlusion

COc1ccccc1Oc1c(NS(=O)(=O)c2ccc(C)cn2)nc(-c2ccnc(-c3nnn[nH]3)c2)nc1OCCO [Clazosentan]
treatment of CVS (CVS; in vivo): highly efficiency for the treatment of CVS
long-term outcome or clinical benefit (CVS; multicenter study): failed to show any effect on long-term outcome or clinical benefit

O=[N+]([O-])OCC(CO[N+](=O)[O-])O[N+](=O)[O-] [GTN, nitroglycerin]
effect on CVS and ischemia (CVS and ischemia): good prophylactic effect on CVS and ischemia

CCOC(=O)[N-]c1c[n+](N2CCOCC2)no1 [Molsidomine, N-ethoxycarbonyl-3-morpholinosydnonimine]
effect in terminating CVS ([1]; judged from equal number of intra-arterial Nimodipine treatments per individual): weak effect
TCD-values (flow velocities) ([1]; under Molsidomine treatment): trend in Transcranial Doppeler (TCD)-values towards normal velocities
Spasmus related infarcts, Infarction (number of patients) ([2]; Hunt & Hess grade III°): 1
Spasmus related infarcts, Infarction (number of patients) ([2]; Hunt & Hess grade II°): 0
Spasmus related infarcts, Infarction (number of patients) ([2]; Hunt & Hess grade IV°): 1
Spasmus related infarcts, Infarction (number of patients) ([2]; Hunt & Hess grade I°): 1
Spasmus related infarcts, Infarction (number of patients) ([2]; Hunt & Hess grade V°): 0
patients who developed CVS associated infarcts (share of group) ([2]; all Hunt & Hess grades): 11.1%
patients who developed vasospasm associated brain infarctions / patients of the group ([2]; all Hunt & Hess grades): 3/27
patients who developed CVS associated infarcts (number) ([2]; all Hunt & Hess grades, groups of 49 (Nimodipine) and 27 (Molsidomine)): 3
adverse / side effects ([3]; Molsidomine i.v., target 3.5-10 mg/h): No adverse side effects were observed; also recorded: did not show any relevant side effects; also recorded: no serious, untreatable (i.e. severe hypotension) adverse effects were observed
depression of MAP, maximum ([3]; even with higher dosage): ≤ 10 mmHg
depression of blood pressure (systolic) ([3]; even with higher dosage): 10-20 mmHg
effect of fast reduction of dosage ([3]; regredient after increased Molsidomine levels): on/off phenomena or a rebound
Blood stains ([3]; under Molsidomine): normal
ICP ([3]; under Molsidomine): did not increase for short or longer periods
MAP kept ([3]; under Molsidomine): 65-70 mmHg
absorption [4]: completely absorbed
Mean NIH >3 months (without deaths) ([5]; Hunt & Hess grade III°): 3.62
Mean mRS >3 months ([5]; Hunt & Hess grade III°): 1.75
Mean NIH >3 months (without deaths) ([5]; Hunt & Hess grade II°): 1
Mean mRS >3 months ([5]; Hunt & Hess grade II°): 1
Mean NIH >3 months (without deaths) ([5]; Hunt & Hess grade IV°): 3.8
Mean mRS >3 months ([5]; Hunt & Hess grade IV°): 1.6
Mean NIH >3 months (without deaths) ([5]; Hunt & Hess grade I°): 0
Mean mRS >3 months ([5]; Hunt & Hess grade I°): 1.75
Mean NIH >3 months (without deaths) ([5]; Hunt & Hess grade V°): 17
Mean mRS >3 months ([5]; Hunt & Hess grade V°): 4
clinical condition and long term outcome in the follow up ([5]; SAH-survivors): impressive improvement of clinical condition and long term outcome
clinical deterioration ([5]; SAH-survivors): no clinical deterioration
patients partly in work process again or to be reintegrated soon ([5]; follow up, normally approx. 5% return to work): 5/27

COCCOC(=O)C1=C(C)NC(C)=C(C(=O)OC(C)C)C1c1cccc([N+](=O)[O-])c1 (centres unmarked) [Nimodipine, 1,4-dihydro-2,6-dimethyl-4-(3-nitrophenyl)-3,5-pyridinedicarboxylic acid 2-methoxyethyl 1-methylethyl ester]
associated DINDs [6]: 27-37%
spasm-associated infarcts [6]: 20-30%
spasm-associated infarcts detected by advanced CT-technique [6]: up to 50%
spasm-related mortality and high-grade morbidity [6]: 30-40%
patients who developed vasospasm associated brain infarctions / patients of the group ([2]; all Hunt & Hess grades): 25/49
Mean NIH >3 months (without deaths) ([5]; Hunt & Hess grade III°): 10.6
Mean mRS >3 months ([5]; Hunt & Hess grade III°): 3.75
Mean NIH >3 months (without deaths) ([5]; Hunt & Hess grade II°): 0
Mean mRS >3 months ([5]; Hunt & Hess grade II°): 3
Mean NIH >3 months (without deaths) ([5]; Hunt & Hess grade IV°): 12.3
Mean mRS >3 months ([5]; Hunt & Hess grade IV°): 4.3
Mean NIH >3 months (without deaths) ([5]; Hunt & Hess grade I°): 0.5
Mean mRS >3 months ([5]; Hunt & Hess grade I°): 1.6
Mean NIH >3 months (without deaths) ([5]; Hunt & Hess grade V°): 38 (2 × exitus)
Mean mRS >3 months ([5]; Hunt & Hess grade V°): 5.7

N=c1c[n+](N2CCOCC2)[n-]o1 [SIN-1, 3-morpholinosydnonimine]
CBF (SAH group): increased CBF
thrombus formation [7]: antithrombotic effect
recovery of cerebral blood flow (CBF) ([8]; after MCA occlusion): enhanced the recovery of cerebral blood flow (CBF)
size of the infarct ([8]; after MCA occlusion): reduced the size of the infarct
infarct [8, 10]: reduced the infarct
recovery of CBF and EEG amplitude [8, 10]: enhanced the recovery of CBF and EEG amplitude
plasma protein binding [9]: no relevant plasma protein binding
